# From US5905036A, “Characterization of organic contaminants and assessment of remediation performance in subsurface formations” (Board Of Regents, The University of Texas System, priority 1997, dated 1999)
# Entries after “also recorded” stand apart in the source; their conditions may differ. Where two headings read alike, the source gives them in different places.
# Experiments:
# [1] = Tracer injection into uncontaminated secondary column (Example 3); assay type: physicochemical; conditions: for adsorption: inferred; for mean residence time: method of moments
# Method: A secondary, uncontaminated column was packed and configured in the same manner as the contaminated column. The only modification made to this column was that the volume of water was equal to the volume of water plus TCE in the primary column. This secondary column was used to observe tracer behavior in an uncontaminated environment.
# Before tracer injection began in the primary column, argon and C6 F12 were injected into the secondary column. Their breakthrough curves are plotted in FIG. 3. Using this procedure, the gas saturation in the secondary column would be similar to that in the primary column. The secondary column was first allowed to equilibrate. […] The C6 F12 was injected as a liquid through the heated injection port. The injector temperature was 40° C.; the liquid was vaporized and moved through the column as a gas. […] When mixed with air, however, they become gases.
# The mean residence times should be equal since there is no TCE for the tracer to partition into. […] The flatness of the peak is believed to be a result of the fact that the liquid vaporizes slowly.
# [2] = Partitioning tracer column experiment, Ottawa sand contaminated with TCE, air carrier (Example 3); conditions: for Mean Residence Times ti / Mean Residence Times ti (cc) / Activity Coefficient, γi: 0.45 cc/min; for Activity Coefficient, γi: in TCE, ideal Ki / experimental Ki; for partitioning into TCE (in words): Ottawa sand column
# Method: Three columns were prepared for each experiment: (1) a contaminated primary column (2.5 cm×30 cm) saturated with residual water and TCE; (2) a contaminated pre-column (2.5 cm×60 cm) saturated with water and TCE; and (3) an uncontaminated secondary column (2.5 cm×30 cm) saturated only with water.
# The primary column was mounted in a vertical configuration and a burette with 100 cc of deionized water was mounted above the column and attached to the inlet. The valve on the burette was opened and water was allowed to gravity drain into the column. After approximately one pore volume of water had entered the column, the burette was disconnected and the column was allowed to continue to gravity drain. Air was flushed through the column to displace any mobile water. The difference between the water injected and the water produced was used to determine the residual water saturation.
# Next, approximately 5 cc of TCE, enough to produce a residual saturation, was injected into the primary column using a syringe and allowed to gravity drain. After draining overnight, the column was weighed for a more accurate estimate of TCE saturation. […] In both cases, water and TCE injection, the pre-column was treated in the same manner. However, larger amounts of water and TCE were injected since the pre-column is twice as large.
# The primary column and pre-column were plumbed into the flowpath. Air flow was through the precolumn, past the reference side of the thermal conductivity detector (TCD), to the test column and then to the measurement side of the TCD. Two injectors, one for the gas tracers (Valco Instruments'switching valve with sample loop) and one for liquid tracers (heated injection port) were located between the reference side of the TCD and the test column. Flow rates were adjusted by the use of a snubber valve located between the precolumn and TCD. Flow rates were monitored and measured by a combination of rotameters and a bubble meter. The TCD measures the difference between the reference stream and the effluent of the test column. Additionally, water-filled manometers were affixed to each end of the column to measure pressure drops across the column.
# Approximately 4 to 8 hours was required for the air stream to equilibrate and for a stable baseline to be established. When the baseline was stable, tracer injections began. Data collected from the TCD were integrated and the integration values stored to computer files data acquisition software.
# After the uncontaminated column experiment had been completed, the contaminated column experiments were begun. […] The mean residence time for production of each tracer was calculated from the response curves using the method of moments. This value can be expressed in minutes or converted to volume units by multiplying by the flow rate.
# [3] = Batch equilibrium measurement of the partition coefficient with TCE; assay type: physicochemical
# Source text: Since a rate dependence was observed, the rate was lowered to 0.08 cc/min and the experiment repeated for C4 F8. In addition, a batch equilibrium measurement of the partition coefficient was made for this tracer. […] The residence time at 0.45 cc/min is about two hours and several times this may be required for equilibrium partitioning. As the partition coefficient increases, so does the residence time, so the heavier tracers should be less effected by nonequilibrium partitioning. In any case, once suitable tracers have been identified, as has been done here, either batch experiments or experiments at low rates or in longer columns (to give long residence times) can be conducted to determine the equilibrium partitioning coefficients needed for field application (assuming the residence time for the field test is long compared to the column test).
# [4] = cited from earlier work
# [5] = Partitioning tracer column experiment, field soil contaminated with TCE; assay type: physicochemical; conditions: for Activity Coefficient, γi, in field soil: field soil contaminated with TCE
# [6] = Partitioning tracer column experiment, PCE-contaminated water-saturated Ottawa sand (Example 1); assay type: physicochemical; conditions: water-saturated sand with residual PCE
# Method: A soil column experiment was performed to illustrate the use of partitioning tracers to detect DNAPL in a saturated zone. A Kontes preparative chromatography column made of borosilicate glass (4.8 cm ID) was packed with-mesh sizes of 60 to 200 Ottawa sand and saturated with water at 23° C. The length of this sandpack was 12.24 cm. The porosity and intrinsic permeability to water were measured and found to be 0.329 and 5.84 Darcy, respectively. […] Two alcohol tracers were added to the water and 0.52 pore volumes of water containing these tracers were injected at 0.316 ml/min followed by several more pore volumes of water until the alcohols could no longer be detected in the effluent. […] The partition coefficients of each of these alcohols were determined by equilibrating samples containing in the range of 100 to 1,000 mg/l of both alcohols with equal volumes of water and PCE and measuring the alcohol concentrations in each phase using a gas chromatograph. […]
# The separation of the two curves gives an unmistakable signal that the sand is contaminated with PCE. […] This value agrees with the value measured from a mass balance on the PCE within the experimental error of each of the measurements. The tracer curves were then numerically simulated using this value and the measured partition coefficients and these are the curves shown in FIG. 1. […]
# [7] = Partitioning tracer column experiment after surfactant remediation of the sand (Example 2); assay type: physicochemical; conditions: no NAPL present
# Source text: The contaminated sand from Example 1 was cleaned by flushing the sand with an aqueous solution of surfactant until all the trichloroethene was removed to thereby simulate a successful remediation. The procedure of Example 1 was then repeated.
# [8] = water; cited from earlier work
Molecule,"Mean Residence Times ti ([2]; Ottawa sand, TCE) [min]","Mean Residence Times ti (cc) ([2]; Ottawa sand, TCE)","Activity Coefficient, γi ([2]; Ottawa sand)","Activity Coefficient, γi, in field soil [5]",Vapor Press ([4]; @ 25 ° C.) [psi],also measured
[Ar] [Argon],93.2,41.9,,,,adsorption [1]: negligible; mean residence time [1]: 45 cc
"FC1(F)C(F)(F)C(F)(F)C1(F)F [C4 F8, Octafluorocyclobutane]",131.4,59.1,26.6,20.8,,"partition coefficient, batch equilibrium [3]: about 4.7; partition coefficient at 0.08 cc/min ([2]; 0.08 cc/min, Ottawa sand, TCE): about 4.7; Vapor Press ([4]; @ 21 ° C.): 40 psi"
"FC1=C(F)C(F)(F)C(F)(F)C1(F)F [C5 F8, Octafluorocyclopentene]",235.0,105.8,20.3,17.2,12.7,
"FC(F)(F)C1(F)C(F)(F)C(F)(F)C(F)(F)C(F)(F)C1(F)F [C7 F14, perfluoromethylcyclohexane]",362.6,163.2,58.3,52.6,2.1,
"FC(F)(F)C1(F)C(F)(F)C(F)(F)C(F)(F)C(F)(C(F)(F)F)C1(F)F (stereo not shown) [C8 F16, perfluoro-1,3-dimethylcyclohexane]",1055.0,474.8,63.1,89.7,0.67,
"FC(F)(F)F [CF4, Carbon Tetrafluoride]",95.1,42.8,,,,partitioning into TCE (in words) [2]: essentially zero; also recorded: negligible partitioning; partitioning into TCE in field soil (in words) ([5]; field soil): negligible partitioning
"CC(C)C(C)(C)O [DMB, 2,3dimethyl 2-butanol]",,,,,,partitioning / retardation in PCE-contaminated column [6]: retarded relative to the IPA; tracer travel after remediation (in words) [7]: travel through the sand at the same rate
"FS(F)(F)(F)(F)F [SF6, Sulfur Hexafluoride]",103.7,46.7,11.6,17.2,,partitioning into TCE (in words) [2]: small but experimentally significant partitioning; Vapor Press ([4]; @ 21 ° C.): 334 psi
"ClC=C(Cl)Cl [TCE, trichloroethylene]",,,,,,vapor pressure ([4]; 20° C.): 1.16 psi; aqueous solubility [8]: 1385 milligrams/liter
[3H]O[3H] [tritiated water],,,,,,partitioning / retardation in PCE-contaminated column [6]: does not partition
dodecafluorodimethylcyclobutane [C6 F12],204.4,92.0,52.0,45,7.2,"adsorption [1]: negligible; mean residence time [1]: 45 cc; factor by which mean residence time differs from argon ([2]; primary column, TCE, Ottawa sand): more than two"
